Reference: patent US20060069132A1, “Azolecarboxamide herbicides” (priority 2004, published 2006)

Key:
eastern black nightshade = assay: Test C pre-/postemergence herbicide test; assay type: in vivo, Solanum ptycanthum; settings: preemergence
In short: (§1)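 Seeds were planted and sprayed preemergence with test chemicals in a non-phytotoxic solvent mixture containing surfactant; postemergence treatments went onto plants 2 to 18 cm tall (1- to 4-leaf stage). After 12 to 14 days in a greenhouse, injury was rated visually against untreated controls on a 0–100 scale.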

cocklebur = assay: Test C pre-/postemergence herbicide test; assay type: in vivo, Xanthium strumarium; settings: preemergence
In short: as §1

ducksalad = assay: Test C flooded paddy test; assay type: in vivo, Heteranthera limosa; settings: for Plant response rating, Ducksalad: 500 g ai/ha, visual rating after 12 to 14 days
large crabgrass = assay: Test C pre-/postemergence herbicide test; assay type: in vivo, Digitaria sanguinalis; settings: preemergence
In short: as §1

velvetleaf = assay: Test C pre-/postemergence herbicide test; assay type: in vivo, Abutilon theophrasti; settings: preemergence
In short: as §1

corn = assay: Test C pre-/postemergence herbicide test; assay type: in vivo, Zea mays; settings: preemergence
In short: as §1

rice = assay: Test C flooded paddy test; assay type: in vivo, Oryza sativa; settings: for Plant response rating, Rice: 500 g ai/ha, visual rating after 12 to 14 days
In short: (§2)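 Postemergence sprays applied to plants 2 to 18 cm tall (1- to 4-leaf stage); paddy species grown to 2-leaf stage under flooding. After 12 to 14 days in greenhouse, visual rating versus untreated controls on 0–100 scale (0 no effect, 100 complete control).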

yellow nutsedge = assay: Test C pre-/postemergence herbicide test; assay type: in vivo, Cyperus esculentus; settings: preemergence
In short: as §1

barnyardgrass = assay: Test C flooded paddy test; assay type: in vivo, Echinochloa crus-galli; settings: for Plant response rating, Barnyardgrass: 500 g ai/ha, visual rating after 12 to 14 days
In short: as §2

common ragweed = assay: Test C pre-/postemergence herbicide test; assay type: in vivo, Ambrosia elatior; parameters: key to Plant response rating, Ragweed: 0 = no effect, 100 = complete control; settings: preemergence
In short: as §1

[1] = 125 g ai/ha, scale 0 (no effect) to 100 (complete control), visual, 12 to 14 days
[2] = 62 g ai/ha, scale 0 to 100 (0 no effect, 100 complete control)
[3] = 125 g ai/ha, scale of 0 to 100, 0 is no effect, 100 is complete control
[4] = 250 g ai/ha, scale of 0 to 100, 0 is no effect, 100 is complete control
[5] = scale 0 to 100 (0 no effect, 100 complete control)
[6] = 500 g ai/ha, scale 0 to 100 (0 no effect, 100 complete control), visual, 12 to 14 days
[7] = 125 g ai/ha, scale 0 to 100 (0 no effect, 100 complete control)

**Q.** Which “Plant response rating, Nightshade” value (eastern black nightshade; 31 g ai/ha, scale 0 to 100) does the source give for CCC(=NO)c1cccc(NC(=O)c2cc(C(C)(C)C)nn2C)c1 [Compound 118] here?
**A.** 60

**Q.** And the “Plant response rating (0 = no effect, 100 = complete control), Nightshade” value (eastern black nightshade; 62 g ai/ha)?
**A.** 100

**Q.** What about the “Plant response rating, Nightshade” value (eastern black nightshade; [1]) of the same compound?
**A.** 100

**Q.** What about the “Plant response rating, Cocklebur” value (cocklebur; 31 g ai/ha, scale 0 to 100) of the same compound?
**A.** 0

**Q.** And the “Plant response rating (0 = no effect, 100 = complete control), Cocklebur” value (cocklebur; 62 g ai/ha)?
**A.** 20

**Q.** And the “Plant response rating, Cocklebur” value (cocklebur; [1])?
**A.** 20

**Q.** What about the “Ducksalad plant response rating” value (ducksalad; [2]) of the same compound?
**A.** 0

**Q.** What about the “Ducksalad plant response rating” value (ducksalad; [3]) of the same compound?
**A.** 50

**Q.** And the “Ducksalad plant response rating” value (ducksalad; [4])?
**A.** 50

**Q.** What about the “Plant response rating, Ducksalad” value (ducksalad; [5]) of the same compound?
**A.** 50

**Q.** What about the “Plant response rating, Crabgrass, Large” value (large crabgrass; 31 g ai/ha, scale 0 to 100) of the same compound?
**A.** 10

**Q.** And the “Plant response rating (0 = no effect, 100 = complete control), Crabgrass, Large” value (large crabgrass; 62 g ai/ha)?
**A.** 70

**Q.** What about the “Plant response rating, Crabgrass, Large” value (large crabgrass; [1]) of the same compound?
**A.** 100

**Q.** What about the “Plant response rating, Velvetleaf” value (velvetleaf; 31 g ai/ha, scale 0 to 100) of the same compound?
**A.** 0

**Q.** And the “Plant response rating, Velvetleaf” value (velvetleaf; [1])?
**A.** 40

**Q.** What about the “Plant response rating, Corn” value (corn; 31 g ai/ha, scale 0 to 100) of the same compound?
**A.** 0

**Q.** What about the “Plant response rating (0 = no effect, 100 = complete control), Corn” value (corn; 62 g ai/ha) of the same compound?
**A.** 0

**Q.** And the “Plant response rating, Corn” value (corn; [1])?
**A.** 10

**Q.** What about the “Rice plant response rating” value (rice; [2]) of the same compound?
**A.** 20

**Q.** What about the “Rice plant response rating” value (rice; [3]) of the same compound?
**A.** 30

**Q.** What about the “Rice plant response rating” value (rice; [4]) of the same compound?
**A.** 40

**Q.** And the “Plant response rating, Rice” value (rice; [5])?
**A.** 50

**Q.** What about the “Plant response rating, Nutsedge, Yellow” value (yellow nutsedge; 16 g ai/ha, scale 0 to 100, last section of Table C) of the same compound?
**A.** 0

**Q.** And the “Plant response rating, Nutsedge, Yellow” value (yellow nutsedge; 31 g ai/ha, scale 0 to 100)?
**A.** 0

**Q.** What about the “Plant response rating (0 = no effect, 100 = complete control), Nutsedge, Yellow” value (yellow nutsedge; 62 g ai/ha) of the same compound?
**A.** 0

**Q.** What about the “Plant response rating, Nutsedge, Yellow” value (yellow nutsedge; [1]) of the same compound?
**A.** 0

**Q.** And the “Barnyardgrass plant response rating” value (barnyardgrass; [2])?
**A.** 0

**Q.** And the “Barnyardgrass plant response rating” value (barnyardgrass; [3])?
**A.** 20

**Q.** And the “Barnyardgrass plant response rating” value (barnyardgrass; [4])?
**A.** 20

**Q.** And the “Plant response rating, Barnyardgrass” value (barnyardgrass; [5])?
**A.** 50

**Q.** What about the “Plant response rating, Ragweed” value (common ragweed; 31 g ai/ha, scale 0 to 100) of the same compound?
**A.** 0

**Q.** What about the “Plant response rating (0 = no effect, 100 = complete control), Ragweed” value (common ragweed; 62 g ai/ha) of the same compound?
**A.** 0

**Q.** And the “Plant response rating, Ragweed” value (common ragweed; [1])?
**A.** 10

**Q.** CCNC(=O)c1cccc(NC(=O)c2nn(C(C)(C)CC)nc2CC)c1 [Compound 376] was tested. Which “Plant response rating, Nightshade” value (eastern black nightshade; 62 g ai/ha, scale 0 to 100) did it give?
**A.** 95

**Q.** And the “Plant response rating (0 = no effect, 100 = complete control), Nightshade” value (eastern black nightshade; 125 g ai/ha)?
**A.** 100

**Q.** And the “Plant response rating, Nightshade” value (eastern black nightshade; 250 g ai/ha, scale 0-100)?
**A.** 100

**Q.** And the “Plant response rating, Nightshade” value (eastern black nightshade; [6])?
**A.** 100

**Q.** And the “Plant response rating, Cocklebur” value (cocklebur; 62 g ai/ha, scale 0 to 100)?
**A.** 0

**Q.** And the “Plant response rating (0 = no effect, 100 = complete control), Cocklebur” value (cocklebur; 125 g ai/ha)?
**A.** 0

**Q.** What about the “Plant response rating, Cocklebur” value (cocklebur; 250 g ai/ha, scale 0-100) of the same compound?
**A.** 0

**Q.** What about the “Plant response rating, Cocklebur” value (cocklebur; [6]) of the same compound?
**A.** 5

**Q.** And the “Ducksalad plant response rating” value (ducksalad; 62 g ai/ha, scale 0 to 100)?
**A.** 25

**Q.** What about the “Ducksalad plant response rating” value (ducksalad; [7]) of the same compound?
**A.** 85

**Q.** What about the “Ducksalad plant response rating” value (ducksalad; [4]) of the same compound?
**A.** 85

**Q.** What about the “Plant response rating, Ducksalad” value (ducksalad; [5]) of the same compound?
**A.** 85

**Q.** And the “Plant response rating, Crabgrass, Large” value (large crabgrass; 62 g ai/ha, scale 0 to 100)?
**A.** 80

**Q.** And the “Plant response rating (0 = no effect, 100 = complete control), Crabgrass, Large” value (large crabgrass; 125 g ai/ha)?
**A.** 100

**Q.** And the “Plant response rating, Crabgrass, Large” value (large crabgrass; 250 g ai/ha, scale 0-100)?
**A.** 100

**Q.** And the “Plant response rating, Crabgrass, Large” value (large crabgrass; [6])?
**A.** 100

**Q.** What about the “Plant response rating, Velvetleaf” value (velvetleaf; 62 g ai/ha, scale 0 to 100) of the same compound?
**A.** 0

**Q.** And the “Plant response rating (0 = no effect, 100 = complete control), Velvetleaf” value (velvetleaf; 125 g ai/ha)?
**A.** 5

**Q.** And the “Plant response rating, Velvetleaf” value (velvetleaf; [6])?
**A.** 50

**Q.** What about the “Plant response rating, Corn” value (corn; 62 g ai/ha, scale 0 to 100) of the same compound?
**A.** 20

**Q.** What about the “Plant response rating (0 = no effect, 100 = complete control), Corn” value (corn; 125 g ai/ha) of the same compound?
**A.** 40

**Q.** What about the “Plant response rating, Corn” value (corn; 250 g ai/ha, scale 0-100) of the same compound?
**A.** 45

**Q.** What about the “Plant response rating, Corn” value (corn; [6]) of the same compound?
**A.** 50

**Q.** What about the “Rice plant response rating” value (rice; 62 g ai/ha, scale 0 to 100) of the same compound?
**A.** 70

**Q.** What about the “Rice plant response rating” value (rice; [7]) of the same compound?
**A.** 75

**Q.** And the “Rice plant response rating” value (rice; [4])?
**A.** 75

**Q.** And the “Plant response rating, Rice” value (rice; [5])?
**A.** 80

**Q.** What about the “Plant response rating, Nutsedge, Yellow” value (yellow nutsedge; 62 g ai/ha, scale 0 to 100) of the same compound?
**A.** 5

**Q.** What about the “Plant response rating (0 = no effect, 100 = complete control), Nutsedge, Yellow” value (yellow nutsedge; 125 g ai/ha) of the same compound?
**A.** 30

**Q.** And the “Plant response rating, Nutsedge, Yellow” value (yellow nutsedge; 250 g ai/ha, scale 0-100)?
**A.** 40

**Q.** And the “Plant response rating, Nutsedge, Yellow” value (yellow nutsedge; [6])?
**A.** 60

**Q.** And the “Barnyardgrass plant response rating” value (barnyardgrass; [2])?
**A.** 45

**Q.** And the “Barnyardgrass plant response rating” value (barnyardgrass; [7])?
**A.** 65

**Q.** And the “Barnyardgrass plant response rating” value (barnyardgrass; [4])?
**A.** 70

**Q.** And the “Plant response rating, Barnyardgrass” value (barnyardgrass; [5])?
**A.** 75

**Q.** And the “Plant response rating, Ragweed” value (common ragweed; 62 g ai/ha, scale 0 to 100)?
**A.** 0

**Q.** What about the “Plant response rating (0 = no effect, 100 = complete control), Ragweed” value (common ragweed; 125 g ai/ha) of the same compound?
**A.** 0

**Q.** And the “Plant response rating, Ragweed” value (common ragweed; 250 g ai/ha, scale 0-100)?
**A.** 50

**Q.** What about the “Plant response rating, Ragweed” value (common ragweed; [6]) of the same compound?
**A.** 50
